A melting point compilation (Tetko et al.; mined from patent text by program, amines drawn as free bases though some values may be those of a salt)

| SMILES | melting point [°C] |
| --- | --- |
| Cc1c(-n2ccnc2)n(CCOc2ccc(C(=O)O)cc2)c2ccccc12 | > 300 |
| Nc1nc(N)nc(-c2cnc3ccccc3c2)n1 | > 250 |
| Cc1nc2cnc(Nc3ccc(N4CCNCC4)cn3)nc2n(C2CCCC2)c1=O | 221 to 223 |
| CCCS(=O)(=O)ON=C(Cl)c1ccc(C)cc1 | 57.5 to 60.5 |
| Cc1oc(-c2ccccc2)nc1COc1cccc(C=CC=Cc2nnn[nH]2)c1 | 201 to 202 |
| CC(C)Cc1ccc2c(c1)C(=O)N(c1ccc3c(ccn3C)c1)C2 | 193 to 194 |
| CNc1cccc(S(=O)(=O)NC(=O)Nc2nc(OC)cc(OC)n2)n1 | 166 to 168 |
| Nc1cc(N2CCN(C(=O)COc3cccc4ccccc34)CC2)nc(N)n1 | 205 to 210 |
| CCOC(=O)C(C)COc1ccccc1-c1cc(C#N)c(=O)[nH]c1C (stereo unspecified) | 167 to 170 |
| CCn1ncnc1COc1nn2c(-c3ccc(F)cc3F)nncc2c1C(C)(C)C | 145 |
| Cc1cccc(C)c1N(C(=O)CCl)C1=CCCCC1 | 78 |
| Cc1cc(SCC#Cc2ccc(C(F)(F)F)cc2)ccc1OCC(=O)O | 130 to 131 |
| COc1cccc(OC)c1C(=O)Nc1nnc(-c2ccc(Cl)cc2)s1 | 238 to 240 |
| NC(=O)c1nnn(Cc2c(Cl)cccc2Cl)c1N | 243 to 245 |
| Cc1ccc(NC(=O)c2cccc(N(C)C)c2)cc1NC(=O)c1cccc(NS(C)(=O)=O)c1 | 239 to 240 |
| O=c1[nH]c2ncc(-c3ccc4[nH]cnc4c3)nc2n1CC1CCCCC1 | 217 to 220 |
| C=CCOCN1C(C)=C(C(=O)OCC)C(c2cccc([N+](=O)[O-])c2)C(C(=O)OCC)=C1C | 111 to 112 |
| Cc1cc(C)nc(-c2cccc(-c3ccccc3)n2)n1 | 117 |

Second part, the compound after the results:

| melting point [°C] | SMILES |
| --- | --- |
| 91 to 93 | COC(=O)COc1ccc(C=O)cc1OC |
| 181 to 183 | CC(C)(C)c1cc(CCc2ccccc2NC(=O)NCc2ccccc2)cc(C(C)(C)C)c1O |
| 82 to 85 | CCOC(=O)C1CCc2ccc(N)c(C)c2O1 (stereo unspecified) |
| 193 to 195 | CCOCc1nc2c(N)nc3cc(-c4ccc(F)c(F)c4)cnc3c2n1CC(C)(C)O |
| 91.5 to 93 | COc1ccc(C(=O)c2ccccn2)cc1OC |
| 122 | Fc1ccc(-c2cnc3ccccc3n2)cc1 |
| 178 to 180 | CCCn1c(=O)c2[nH]c(CC34CC5CC(CC(C5)C3)C4)nc2n(CCC)c1=O |
| 206 | O=C1CCC(c2ccccc2)(c2ccccc2)[C@@H]2CN(C(=O)Cc3cccs3)C[C@H]12 (racemic) |
| 53 to 54 | COC(=O)CCCCc1ccc(CN2CCN(c3ccncc3)CC2)cc1 |
| 222 to 223 | Nc1nccc(-c2c(-c3ccccc3)nn3ccccc23)n1 |
| 153 | O=CNCCN1CCC(Nc2nc3ccccc3n2Cc2ccc(F)cc2)CC1 |
| 178 to 179 | CS(=O)(=O)c1ccc(-c2ccccc2-c2ccc(F)cc2)cc1 |
| 254 to 256 | COc1ccnc(CSc2nc3cc(Cl)c(Cl)cc3[nH]2)c1C |
| 108 to 109 | C#Cc1cnc2c(C)cc(OC(SC)C(=O)NC(C)(C#C)COC)cc2c1 (stereo unspecified) |
| 72 to 74 | Cc1cc(C(=CC(=O)c2ccc(Cl)cc2)C(F)(F)F)ccc1NC(=O)OC(C)(C)C |
| 87.5 to 89.5 | BrCC=C1c2ccccc2C=Cc2ccccc21 |
| 145 to 146 | CN1CCNC1=C(Cl)[N+](=O)[O-] |
| 260 to 262 | CS(=O)(=O)c1ccc(CC(=O)c2c(O)c3cccnc3n(-c3ccccc3)c2=O)cc1 |
| 135 to 136 | COc1cc(CO)ccc1OCc1cn(-c2ccccn2)nc1C |
| 161 to 163 | Nc1nccc(C=Cc2ccccn2)c1[N+](=O)[O-] |
| 78 to 80 | O=[N+]([O-])c1ccccc1Oc1cc(Cl)cc(Cl)c1 |
| 37.5 | Cc1ccc(S(=O)(=O)OCP(=O)(OC(C)C)OC(C)C)cc1 |
| > 320 | Cc1csc2[nH]c(=O)c(=O)[nH]c12 |
